Assay results reported in the supplement of paper PMC10307832.

How the values were obtained:
Test in all cases: relative viability (nuclei count vs DMSO), 5 days (fraction); higher = more cells survive
[1] = compound: C/C(=N\NC(=S)N1CCC1)/C2=CC=CC=N2 + CCNC(=O)c1noc(-c2cc(C(C)C)c(O)cc2O)c1-c1ccc(CN2CCOCC2)cc1 [Luminespib] (partner 0.01 µM)
Outline: (§1)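 Lung cancer cell lines in 1536-well plates got either a single drug or a fixed anchor-drug dose together with five library-drug doses (not always all listed) in √10 steps, by pin tool, on the day after seeding. Nuclei were counted after 5 days, and relative viability is the treated-to-vehicle ratio of nuclei counts. Values are medians of duplicate plates.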

[2] = compound: C/C(=N\NC(=S)N1CCC1)/C2=CC=CC=N2 + C[C@]1(O)C[C@@H](c2nc(-c3ccc4ccc(-c5ccccc5)nc4c3)c3c(N)nccn32)C1 [Linsitinib] (partner 1 µM)
Outline: as §1

[3] = compound: C/C(=N\NC(=S)N1CCC1)/C2=CC=CC=N2 + CS(=O)(=O)CCNCc1ccc(-c2ccc3ncnc(Nc4ccc(OCc5cccc(F)c5)c(Cl)c4)c3c2)o1 [Lapatinib] (partner 2 µM)
Outline: as §1

[4] = compound: C/C(=N\NC(=S)N1CCC1)/C2=CC=CC=N2 + COc1cccc2cc(-c3nc([C@H]4CC[C@H](C(=O)O)CC4)n4ncnc(N)c34)[nH]c12 [OSI-027] (partner 0.5 µM)
Outline: as §1

| Cell Line | relative viability ([1]; first compound 0.05 µM) | relative viability ([1]; first compound 0.1581 µM) | relative viability ([1]; first compound 0.5 µM) | relative viability ([1]; first compound 1.581 µM) | relative viability ([1]; first compound 5 µM) | relative viability ([2]; first compound 0.05 µM) | relative viability ([2]; first compound 0.1581 µM) | relative viability ([2]; first compound 0.5 µM) | relative viability ([2]; first compound 1.581 µM) | relative viability ([2]; first compound 5 µM) | relative viability ([3]; first compound 0.05 µM) | relative viability ([3]; first compound 0.1581 µM) | relative viability ([3]; first compound 0.5 µM) | relative viability ([3]; first compound 1.581 µM) | relative viability ([3]; first compound 5 µM) | relative viability ([4]; first compound 0.05 µM) | relative viability ([4]; first compound 0.1581 µM) | relative viability ([4]; first compound 0.5 µM) | relative viability ([4]; first compound 1.581 µM) | relative viability ([4]; first compound 5 µM) |
| --- | --- | --- | --- | --- | --- | --- | --- | --- | --- | --- | --- | --- | --- | --- | --- | --- | --- | --- | --- | --- |
| NCI-H1437 | 0.238 | 0.215 | 0.216 | 0.18 | 0.14 | 0.114 | 0.122 | 0.103 | 0.0866 | 0.0787 | 0.127 | 0.128 | 0.109 | 0.0868 | 0.0855 | 0.19 | 0.174 | 0.174 | 0.135 | 0.106 |
| SK-LU-1 | 0.154 | 0.133 | 0.176 | 0.156 | 0.178 | 0.274 | 0.231 | 0.224 | 0.202 | 0.21 | 0.301 | 0.149 | 0.14 | 0.142 | 0.204 | 0.145 | 0.136 | 0.131 | 0.124 | 0.151 |
| BEN | 0.113 | 0.19 | 0.0969 | 0.12 | 0.0243 | 0.168 | 0.171 | 0.167 | 0.174 | 0.189 | 0.178 | 0.201 | 0.21 | 0.203 | 0.188 | 0.206 | 0.142 | 0.166 | 0.183 | 0.202 |
| LC-2-ad | 0.269 | 0.273 | 0.252 | 0.219 | 0.247 | 0.131 | 0.155 | 0.11 | 0.099 | 0.146 | 0.113 | 0.122 | 0.106 | 0.112 | 0.122 | 0.282 | 0.295 | 0.277 | 0.179 | 0.227 |
| COR-L23 | 0.102 | 0.0984 | 0.0928 | 0.0829 | 0.0974 | 0.129 | 0.11 | 0.106 | 0.0712 | 0.0637 | 0.144 | 0.156 | 0.119 | 0.0787 | 0.101 | 0.116 | 0.111 | 0.108 | 0.0709 | 0.0853 |
| RERF-LC-KJ | 0.343 | 0.306 | 0.272 | 0.265 | 0.294 | 0.233 | 0.253 | 0.227 | 0.243 | 0.229 | 0.258 | 0.263 | 0.23 | 0.253 | 0.275 | 0.266 | 0.258 | 0.251 | 0.221 | 0.243 |
| NCI-H1915 | 0.126 | 0.108 | 0.111 | 0.121 | 0.107 | 0.523 | 1.03 | 0.228 | 0.176 | 0.153 | 0.195 | 0.182 | 0.157 | 0.136 | 0.133 | 0.184 | 0.165 | 0.176 | 0.179 | 0.163 |
| NCI-H596 | 0.433 | 0.673 | 0.246 | 0.222 | 0.235 | 0.912 | 0.344 | 0.251 | 0.208 | 0.257 | 0.339 | 0.293 | 0.221 | 0.228 | 0.299 | 0.259 | 0.253 | 0.281 | 0.226 | 0.263 |
| NCI-H2009 | 0.128 | 0.146 | 0.15 | 0.186 | 0.127 | 0.139 | 0.163 | 0.154 | 0.165 | 0.138 | 0.141 | 0.16 | 0.151 | 0.161 | 0.0978 | 0.0946 | 0.153 | 0.17 | 0.129 | 0.12 |
| NCI-H2126 | 0.201 | 0.201 | 0.198 | 0.178 | 0.225 | 0.277 | 0.724 | 0.268 | 0.223 | 0.246 | 0.242 | 0.272 | 0.249 | 0.236 | 0.241 | 0.206 | 0.225 | 0.21 | 0.212 | 0.205 |
| LXF-289 | 0.169 | 0.132 | 0.177 | 0.153 | 0.126 | 0.508 | 0.325 | 0.248 | 0.226 | 0.131 | 0.322 | 0.278 | 0.275 | 0.24 | 0.14 | 0.2 | 0.223 | 0.222 | 0.146 | 0.0943 |
| NCI-H1563 | 0.464 | 0.435 | 0.472 | 0.429 | 0.467 | 0.684 | 0.541 | 0.563 | 0.612 | 0.629 | 0.626 | 0.61 | 0.573 | 0.598 | 0.623 | 0.5 | 0.541 | 0.506 | 0.541 | 0.542 |
| HCC-44 | 0.326 | 0.307 | 0.283 | 0.32 | 0.242 | 0.553 | 0.141 | 0.143 | 0.154 | 0.183 | 0.292 | 0.184 | 0.177 | 0.156 | 0.232 | 0.183 | 0.221 | 0.261 | 0.195 | 0.297 |
| PC-14 | 0.104 | 0.126 | 0.112 | 0.0879 | 0.095 | 0.0952 | 0.125 | 0.12 | 0.0874 | 0.117 | 0.11 | 0.112 | 0.124 | 0.0912 | 0.0865 | 0.0306 | 0.0778 | 0.0467 | 0.041 | 0.0364 |
| HOP-62 | 0.215 | 0.12 | 0.151 | 0.129 | 0.119 | 0.162 | 0.968 | 0.0703 | 0.0888 | 0.0655 | 0.0752 | 0.0868 | 0.0479 | 0.0716 | 0.0698 | 0.104 | 0.0907 | 0.101 | 0.111 | 0.102 |
| NCI-H358 | 0.0782 | 0.118 | 0.144 | 0.108 | 0.0871 | 0.179 | 0.196 | 0.163 | 0.125 | 0.181 | 0.233 | 0.247 | 0.244 | 0.193 | 0.199 | 0.0802 | 0.0946 | 0.0796 | 0.0601 | 0.0821 |
